The record followed here is ChEMBL document CHEMBL1131788, “Isolation and structure of SCH 351633: a novel hepatitis C virus (HCV) NS3 protease inhibitor from the fungus Penicillium griseofulvum” (Bioorg Med Chem Lett, 1999).

This test deals with NS3 (Hepatitis C virus, UniProt A3EZJ3). The experiment in a line: In vitro antiviral activity against hepatitis C virus (HCV) NS3 protease using scintillation proximity assay. On the set-up: species or system Hepacivirus hominis. In general terms: SPA uses beads or plates that emit light when radiolabelled molecules are held near them.
Sequence of NS3 (A3EZJ3 whole entry): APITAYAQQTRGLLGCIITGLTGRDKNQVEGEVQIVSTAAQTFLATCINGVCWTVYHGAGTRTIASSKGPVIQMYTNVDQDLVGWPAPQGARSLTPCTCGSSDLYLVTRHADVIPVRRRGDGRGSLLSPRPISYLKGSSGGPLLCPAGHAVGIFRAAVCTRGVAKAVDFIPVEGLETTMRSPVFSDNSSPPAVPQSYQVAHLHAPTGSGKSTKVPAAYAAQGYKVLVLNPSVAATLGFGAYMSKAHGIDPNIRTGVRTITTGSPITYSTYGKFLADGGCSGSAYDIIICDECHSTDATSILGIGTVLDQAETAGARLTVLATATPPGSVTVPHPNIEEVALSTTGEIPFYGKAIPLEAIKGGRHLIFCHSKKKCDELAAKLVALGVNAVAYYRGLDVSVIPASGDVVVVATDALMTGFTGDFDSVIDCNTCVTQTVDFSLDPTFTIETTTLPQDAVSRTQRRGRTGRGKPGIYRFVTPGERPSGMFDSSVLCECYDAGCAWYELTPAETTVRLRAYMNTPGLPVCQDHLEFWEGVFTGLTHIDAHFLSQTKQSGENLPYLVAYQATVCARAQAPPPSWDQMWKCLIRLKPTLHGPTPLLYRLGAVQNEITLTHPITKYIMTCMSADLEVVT

Turning to `CC(=O)OC1OCC=C2OC(=O)C=C21` (stereo not drawn), inhibition was half-maximal at 36.7 µM (IC50).

For the compound `O=C1C=C2C(=CCOC2O)O1` (stereo not drawn) [PATULIN], half-maximal inhibition (IC50) was put at 24.7 µM.

For `O=C1C=C2C(=CCOC2OC(=O)c2ccc(Br)cc2)O1` (stereo not drawn), 37.4 µM corresponded to half-maximal inhibition (IC50).
